Experimental data reported in article PMC11904993, “Humanized Candida and NanoBiT Assays Expedite Discovery of Bdf1 Bromodomain Inhibitors With Antifungal Potential” (Advanced Science, 2025).
Where “and” joins values, the source holds several entries; their conditions need not be identical. Equal entries are not always repeated.

Experiments:
[1] = system: humanized C. albicans strains (both Bdf1 BDs replaced by Brd4 BDs); test: Growth in liquid media, humanized C. albicans; type: cell-based; conditions: Candida albicans, read-out: EC50 (μM), C. albicans (hum)
Procedure: (§1) Strains were presented in Table S8 (Supporting Information). Cells from a single colony were diluted in 0.85% NaCl before being counted using a Neubauer chamber. They were diluted to a final concentration of 6500 cells mL^−1 per well for all clinical strains of C. albicans and C. glabrata; 65 000 cells mL^−1 per well for C. auris; 13 500 cells mL^−1 per well for C. parapsilosis; 3375 cells mL^−1 per well for C. krusei and 1687.5 cells mL^−1 per well for C. tropicalis, in a sterile 96‐well plate. Cells were then grown in SC medium with or without chemical compounds at 30 °C with regular shaking. The significance of growth defects was assessed using Holm‐Sidak method by GraphPad Prism 10.

[2] = system: C. albicans expressing WT Bdf1; test: Galleria fungal infection model, WT strain; type: in vivo, Galleria mellonella; design: key to survival event of one larva (1 = death 0 = no death): 1 = death; 0 = no death
Procedure: (§2) Galleria mellonella larvae were purchased from Decathlon (La Tronche, France). They were selected in the late larval stages weighing between 300 and 400 mg. Groups of 10 larvae were injected into the right or left last pro‐leg with 10 µl of either PBS, C. albicans suspensions or antifungal drug using an insulin syringe (BDUltra‐Fine 0.3 ml). C. albicans suspensions of the WT and humanized Bdf1 strains were adjusted to 10^6 cells larva^−1. Antifungal drugs (anidulafungin 5 mg kg^−1 or I‐BET726 66 or 44 mg kg^−1) were injected once 30 min before fungal infection. An infected control group received the C. albicans inoculum and the solvent of the drug. A non‐infected control group received only PBS. After inoculation, larvae were placed in Petri dishes and incubated in the dark at 37 °C. The larvae were monitored for 5 days, and survival outcome was determined. For experiments performed at the lower (44 mg kg^−1) dose of IBET‐726, the difference in protection against infection with humanized versus WT C. albicans strains was more evident using the survival data at 40 h rather than at 100 h post‐infection. Larvae were considered dead when no response was observed following touch. All experiments were performed at least 3 times independently. The significance of survival was assessed by a Log‐rank (Mantel‐Cox) test in GraphPad Prism 10.

[3] = system: C. albicans expressing humanized Bdf1; test: Galleria fungal infection model, humanized strain; type: in vivo, Galleria mellonella; design: key to survival event of one larva (1 = death 0 = no death): 1 = death; 0 = no death; conditions: for survival event of one larva (1 = death 0 = no death): Bdf1-hBD* strain
Procedure: as §2

C. tropicalis = test: Growth in liquid media; type: cell-based; conditions: Fig 5C; for Growth (%): C. tropicalis
Procedure: as §1

C. auris = test: Growth in liquid media; type: cell-based; conditions: Fig 5C; for Growth (%): C. auris
Procedure: as §1

C. parapsilosis = test: Growth in liquid media; type: cell-based; conditions: Fig 5C; for Growth (%): C. parapsilosis
Procedure: as §1

C. krusei = test: Growth in liquid media; type: cell-based; conditions: Fig 5C
Procedure: as §1

[4] = system: C. glabrata strains (WT, pdr1∆ or PDR1 rescue); test: Growth assays to assess compound efflux; type: cell-based; conditions: for growth relative to Solvent = 100 (Figure S10B): compound 50 µM, three replicates
Procedure: Cells from a single colony were diluted in 0.85% NaCl before being counted using a Neubauer chamber. […] The effect of fluconazole was tested by titration on these strains under similar conditions.

CC(=O)N1c2ccc(-c3ccc(C(=O)O)cc3)cc2C(Nc2ccc(Cl)cc2)CC1C (stereo not shown) [I-BET726]
EC50 [1]: 0.035 ± 0.003 µM
protection against infection ([2]; 44 mg kg^−1): not significant
survival of infected larvae ([2]; 66 mg kg^−1, injected once 30 min before infection): ≈ 100 h
survival event of one larva (1 = death 0 = no death) ([2]; Figure 6B, Time 10 hours): 1
survival event of one larva (1 = death 0 = no death) ([2]; Figure 6B, Time 35 hours): 1
survival event of one larva (1 = death 0 = no death) ([2]; Figure 6B, Time 50 hours): 1
survival event of one larva (1 = death 0 = no death) ([2]; Figure 6B, Time 73 hours): 1
survival event of one larva (1 = death 0 = no death) ([2]; Figure 6D, Time 17 hours): 1
survival event of one larva (1 = death 0 = no death) ([2]; Figure 6D, Time 23 hours): 1
survival event of one larva (1 = death 0 = no death) ([2]; Figure 6D, Time 41 hours): 1 and 0
protection against infection ([3]; 44 mg kg^−1, humanized strain, p = 0.0115, Mantel‐Cox test): significant protection
survival of infected larvae ([3]; 66 mg kg^−1, injected once 30 min before infection, humanized strain): ≈ 100 h
survival event of one larva (1 = death 0 = no death) ([3]; Figure 6C, Time 8 hours): 1
survival event of one larva (1 = death 0 = no death) ([3]; Figure 6C, Time 33 hours): 1
survival event of one larva (1 = death 0 = no death) ([3]; Figure 6C, Time 57 hours): 1
survival event of one larva (1 = death 0 = no death) ([3]; Figure 6C, Time 70 hours): 1
survival event of one larva (1 = death 0 = no death) ([3]; Figure 6D, Time 27 hours): 1
survival event of one larva (1 = death 0 = no death) ([3]; Figure 6D, Time 41 hours): 1 and 0
Growth (%) (C. tropicalis; 1.5625 µM): 85% and 87% and 84%
Growth (%) (C. tropicalis; 3.125 µM): 76% and 75%
Growth (%) (C. tropicalis; 25 µM): 31% and 40% and 34%
EC50 (C. tropicalis; Candida tropicalis): 8.8 ± 1.4 µM
Growth (%) (C. auris; 1.5625 µM): 91% and 92% and 90%
Growth (%) (C. auris; 3.125 µM): 85% and 86% and 87%
Growth (%) (C. auris; 25 µM): 73% and 79%
EC50 (C. auris; Candidozyma auris): > 50 µM
Growth (%) (C. parapsilosis; 1.5625 µM): 87% and 91% and 88%
Growth (%) (C. parapsilosis; 3.125 µM): 79% and 80% and 78%
Growth (%) (C. parapsilosis; 25 µM): 58% and 59% and 57%
EC50 (C. parapsilosis; Lodderomyces parapsilosis): ~30 µM
Growth (%) (C. krusei; 1.5625 µM): 97% and 93%
Growth (%) (C. krusei; 3.125 µM): 102% and 92% and 91%
Growth (%) (C. krusei; 25 µM): 103% and 86% and 91%

Cc1ccc(-c2nnc(C)c(NCc3ccc(C)o3)n2)cc1 [Compound 24c, 6‐methyl‐N‐((5‐methylfuran‐2‐yl)methyl)‐3‐(p‐tolyl)‐1,2,4‐triazin‐5‐amine]
activity against PDR1 deletion strain versus WT/rescue ([4]; 50 µM (I-BET726 1 µM), 20 h): unaffected
growth relative to Solvent = 100 (Figure S10B) ([4]; PDR1 Rescue): 76.2272 and 100 and 72.1057
growth relative to Solvent = 100 (Figure S10B) ([4]; WT): 69.2689 and 72.9849 and 92.6631
growth relative to Solvent = 100 (Figure S10B) ([4]; pdr1∆): 52.2261 and 60.5623 and 93.6717
